{
  "source": "patent US20090215884A1",
  "about": "“METHOD FOR WOUND HEALING” (priority 2005, published 2009)",
  "key": {"dermal fibroblasts [1]": {"tested_on": "dermal fibroblasts", "assay": "MTT cell viability and proliferation, dermal fibroblasts", "assay_type": "cell-based, human", "text": "A normal adult skin biopsy (6 mm) was obtained (n=1), with informed consent, from an individual attending the Oral Surgery Clinic, School of Dentistry, Wales College of Medicine, Cardiff. Following the application of a local anaesthetic, the dermal biopsy was collected and adult dermal fibroblast cultures established by single cell suspension technique, following enzymic degradation of the specimen. This technique has previously been reliably used to establish viable primary cultures of both oral and dermal fibroblasts in vitro (Cook et al, 2000; Stephens et al, 2001; 2003). Dermal fibroblasts were cultured in Fibroblast-Serum Containing Medium, containing Dulbecco's Modified Eagle's Medium (DMEM), supplemented with L-glutamine (2 mM), antibiotics (100 U/ml penicillin G sodium, […] streptomycin sulphate and 0.25 μg/ml amphotericin B) and 10% fetal calf serum (all purchased from Invitrogen Ltd., Paisley, U.K.). Dermal fibroblast cultures were maintained at 37° C., in a 5% CO2/95% air atmosphere, with the culture medium being changed every 2-3 days. Dermal fibroblasts were used between passage 7-17, for all experiments.\nPrior to use, the PEP005/DMSO stock solution was removed from 4° C. storage and warmed to room temperature. The required volumes of PEP005/DMSO were aliquoted into a poly-propylene vessel and the PEP005/DMSO diluted to the required concentration (typically 0.01 μg/ml, 0.1 μg/ml, 1 μg/ml, 10 μg/ml and […]) in Fibroblast-Serum Containing Medium (for dermal fibroblast cultures) or serum-free, EpiLife® Medium (for epidermal keratinocyte cultures), with fresh PEP005/culture medium solutions being prepared daily, at the various concentrations above, due to solution stability. Prior to discarding PEP005/culture medium solutions, at least two volumes of 0.1% sodium hydroxide (Sigma Chemical Co.), in 95% ethanol/5% methanol (both from Fisher Scientific, Leicestershire, U.K.), was added to each solution, to decontaminate.\nThe MTT [3-(4,5-dimethyl-2-thiazolyl)-2,5-diphenyltetrazolium bromide] dye-reduction assay was employed for the assessment of dermal fibroblast and epidermal keratinocyte cell viability and proliferation, according to Cook et al (2000). Following trypzinisation, dermal fibroblast or epidermal keratinocyte were seeded in 96-well microtitre plates (VWR International Ltd., Leicestershire, U.K.), at a cell density of 2.5×10^3 cell/well and 5×10^3 cell/well, respectively. Following cell seeding for 24 h and 48 h, respectively, the dermal fibroblast and epidermal keratinocyte culture medium were replaced with culture medium (100 μl/well), containing 0, 0.01 μg/ml, 0.1 μg/ml, 1 μg/ml, 10 μg/ml or 100 μg/ml PEP005 (six culture wells per PEP005 concentration). […]"}, "dermal fibroblasts [2]": {"tested_on": "dermal fibroblasts", "assay": "Fibroblast populated collagen lattice (FPCL) reorganization/contraction", "assay_type": "cell-based, human", "conditions": "0.1 μg/ml PEP005", "text": "A normal adult skin biopsy (6 mm) was obtained (n=1), with informed consent, from an individual attending the Oral Surgery Clinic, School of Dentistry, Wales College of Medicine, Cardiff. Following the application of a local anaesthetic, the dermal biopsy was collected and adult dermal fibroblast cultures established by single cell suspension technique, following enzymic degradation of the specimen. This technique has previously been reliably used to establish viable primary cultures of both oral and dermal fibroblasts in vitro (Cook et al, 2000; Stephens et al, 2001; 2003). […]\nThe ability of dermal fibroblasts to remodel/reorganize their ECM environment in the presence of PEP005 was examined by fibroblast populated collagen lattices (FPCLs), according to Cook et al (2000). […] The degree of ECM reorganization/lattice contraction was quantified from three separate lattice diameter measurements performed on each of the three replicate samples, at days 1, 2, 3, 4, 5, 6, 7, 10 and 14, after initial fabrication. […]\nEach experiment was performed on two separate occasions, with the % reductions in lattice contraction and the MMP densitometric values obtained being expressed as an average for each group of samples"}},
  "data": [
    {"smiles": "C/C=C(/C)C(=O)O[C@H]1C(C)=C[C@]23C(=O)[C@@H](C=C(CO)[C@@H](O)[C@]12O)[C@H]1[C@@H](C[C@H]3C)C1(C)C", "note": "[PEP005, ingenol-3-angelate]", "values": [
      {"measurement": "dermal fibroblast cell viability/proliferation (MTT)", "setting": "dermal fibroblasts [1]; 0.01 μg/ml PEP005, day 7", "result": "appeared to stimulate cell viability/proliferation"},
      {"measurement": "dermal fibroblast cell viability/proliferation (MTT)", "setting": "dermal fibroblasts [1]; 0.1 μg/ml PEP005, day 7", "result": "appeared to stimulate cell viability/proliferation"},
      {"measurement": "dermal fibroblast cell viability/proliferation (MTT)", "setting": "dermal fibroblasts [1]; 10 μg/ml PEP005, days 1, 3 and 5", "result": "stimulatory effect"},
      {"measurement": "dermal fibroblast cell viability/proliferation (MTT)", "setting": "dermal fibroblasts [1]; 100 μg/ml PEP005, compared to untreated fibroblast controls", "result": "cytotoxic effect"},
      {"measurement": "Type I collagen lattice contraction", "setting": "dermal fibroblasts [2]", "result": "significantly increased"}
    ]}
  ]
}
